# Laboratory results as given in patent publication US6335436B1, “Oligonucleotides active against drug-resistant bacteria” (priority 1995, dated 2002).
# Experiments:
# Format in all cases: cell-based, Mycobacterium smegmatis
# M. smegmatis ATCC 607 [1] = assay: Inhibition of M. smegmatis growth in broth cultures (cell counts); conditions: for Cell Numbers per ml × 10^6: no ODS
# M. smegmatis mc^2155 = assay: MIC of ethambutol in the presence of oligodeoxynucleotide phosphorothioates in broth cultures; conditions: Mycolicibacterium smegmatis, 336 h, no ODS, at least 99% inhibition of cell growth during two weeks
# M. smegmatis ATCC 607 [2] = assay: as above; conditions: Mycolicibacterium smegmatis, ATCC607, 336 h, read-out: MIC of ethambutol
compound,measurement,setting,value
N[C@@H]1CONC1=O [D-cycloserine],Cell Numbers per ml × 10^6,"M. smegmatis ATCC 607 [1]; Table IV, free D-cycloserine 1 μg/ml alone, 24 hrs",617 × 10^6 cells per ml
same,Cell Numbers per ml × 10^6,"M. smegmatis ATCC 607 [1]; Table IV, free D-cycloserine 1 μg/ml alone, 48 hrs",549 × 10^6 cells per ml
same,Cell Numbers per ml × 10^6,"M. smegmatis ATCC 607 [1]; Table IV, free D-cycloserine 1 μg/ml alone, 72 hrs",504 × 10^6 cells per ml
same,Cell Numbers per ml × 10^6,"M. smegmatis ATCC 607 [1]; Table IV, free D-cycloserine 5 μg/ml alone, 24 hrs",551 × 10^6 cells per ml
same,Cell Numbers per ml × 10^6,"M. smegmatis ATCC 607 [1]; Table IV, free D-cycloserine 5 μg/ml alone, 48 hrs",482 × 10^6 cells per ml
same,Cell Numbers per ml × 10^6,"M. smegmatis ATCC 607 [1]; Table IV, free D-cycloserine 5 μg/ml alone, 72 hrs",420 × 10^6 cells per ml
same,Cell Numbers per ml × 10^6,"M. smegmatis ATCC 607 [1]; Table IV, free D-cycloserine 30 μg/ml alone, 24 hrs",363 × 10^6 cells per ml
same,Cell Numbers per ml × 10^6,"M. smegmatis ATCC 607 [1]; Table IV, free D-cycloserine 30 μg/ml alone, 48 hrs",291 × 10^6 cells per ml
same,Cell Numbers per ml × 10^6,"M. smegmatis ATCC 607 [1]; Table IV, free D-cycloserine 30 μg/ml alone, 72 hrs",236 × 10^6 cells per ml
same,inhibition of growth,"M. smegmatis ATCC 607 [1]; free D-cycloserine in liquid medium, 1.0 μg/ml",minimal inhibition of growth
same,inhibition of M. smegmatis growth,"M. smegmatis ATCC 607 [1]; free D-cycloserine in liquid medium, 10-30 μg/ml",significant inhibition
"CC[C@@H](CO)NCCN[C@@H](CC)CO [Ethambutol, ethambutol]",Cell Numbers per ml × 10^6,"M. smegmatis ATCC 607 [1]; Table I, ethambutol 0.5 ug/ml alone, 24 hrs",71 × 10^6 cells per ml
same,Cell Numbers per ml × 10^6,"M. smegmatis ATCC 607 [1]; Table I, ethambutol 0.5 ug/ml alone, 48 hrs",240 × 10^6 cells per ml
same,Cell Numbers per ml × 10^6,"M. smegmatis ATCC 607 [1]; Table I, ethambutol 0.5 ug/ml alone, 72 hrs",411 × 10^6 cells per ml
same,Cell Numbers per ml × 10^6,"M. smegmatis ATCC 607 [1]; Table I, ethambutol 1 ug/ml alone, 24 hrs",39 × 10^6 cells per ml
same,Cell Numbers per ml × 10^6,"M. smegmatis ATCC 607 [1]; Table I, ethambutol 1 ug/ml alone, 48 hrs",109 × 10^6 cells per ml
same,Cell Numbers per ml × 10^6,"M. smegmatis ATCC 607 [1]; Table I, ethambutol 1 ug/ml alone, 72 hrs",172 × 10^6 cells per ml
same,Cell Numbers per ml × 10^6,"M. smegmatis ATCC 607 [1]; Table I, ethambutol 5 ug/ml alone, 24 hrs",25 × 10^6 cells per ml
same,Cell Numbers per ml × 10^6,"M. smegmatis ATCC 607 [1]; Table I, ethambutol 5 ug/ml alone, 48 hrs",68 × 10^6 cells per ml
same,Cell Numbers per ml × 10^6,"M. smegmatis ATCC 607 [1]; Table I, ethambutol 5 ug/ml alone, 72 hrs",111 × 10^6 cells per ml
same,Cell Numbers per ml × 10^6,"M. smegmatis ATCC 607 [1]; Table III, ethambutol 0.5 μg/ml alone, 24 hrs",77 × 10^6 cells per ml
same,Cell Numbers per ml × 10^6,"M. smegmatis ATCC 607 [1]; Table III, ethambutol 0.5 μg/ml alone, 48 hrs",189 × 10^6 cells per ml
same,Cell Numbers per ml × 10^6,"M. smegmatis ATCC 607 [1]; Table III, ethambutol 0.5 μg/ml alone, 72 hrs",388 × 10^6 cells per ml
same,MIC,M. smegmatis mc^2155,30 µg/mL
same,MIC,M. smegmatis ATCC 607 [2],25 µg/mL
